# Data reported in PubChem BioAssay AID1963979 (Molecular Pharmacology Branch, DTP, NCI, 2024).
# Tested on: 361931-004-R-J1-PDC multicell spheroid viability
# Test: Anticancer human tumor 361931-004-R-J1-PDC patient-derived colon adenocarcinoma cell line growth inhibition [PI3K]
# Conditions: for IC50: curve of first compound; for viability, T/C: stronger effect = lower value
# Summary of the method: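 Complex 3D spheroids (cancer cells + endothelial HUVEC + mesenchymal stem cells); drug pairs of targeted agent x inavolisib/alpelisib/duvelisib/copanlisib; half-log series from ~Cmax, max 10 microM if Cmax unknown; endpoint viability.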
# [1] = second compound 0.0316 µM, first compound 0.0316 µM
# [2] = second compound 0.0316 µM, first compound 0.1 µM
# [3] = second compound 0.0316 µM, first compound 0.316 µM
# [4] = second compound 0.0316 µM, first compound 1 µM
# [5] = second compound 0.0316 µM, first compound 3.16 µM
# [6] = second compound 0.0316 µM, first compound 10 µM
# [7] = second compound 0.1 µM, first compound 0.0316 µM
# [8] = second compound 0.1 µM, first compound 0.1 µM
# [9] = second compound 0.1 µM, first compound 0.316 µM
# [10] = second compound 0.1 µM, first compound 1 µM
# [11] = second compound 0.1 µM, first compound 3.16 µM
# [12] = second compound 0.1 µM, first compound 10 µM
# [13] = second compound 0.316 µM, first compound 0.0316 µM
# [14] = second compound 0.316 µM, first compound 0.1 µM
# [15] = second compound 0.316 µM, first compound 0.316 µM
# [16] = second compound 0.316 µM, first compound 1 µM
# [17] = second compound 0.316 µM, first compound 3.16 µM
# [18] = second compound 0.316 µM, first compound 10 µM
# [19] = second compound 1 µM, first compound 0.0316 µM
# [20] = second compound 1 µM, first compound 0.1 µM
# [21] = second compound 1 µM, first compound 0.316 µM
# [22] = second compound 1 µM, first compound 1 µM
# [23] = second compound 1 µM, first compound 3.16 µM
# [24] = second compound 1 µM, first compound 10 µM
# [25] = second compound 3.16 µM, first compound 0.0316 µM
# [26] = second compound 3.16 µM, first compound 0.1 µM
# [27] = second compound 3.16 µM, first compound 0.316 µM
# [28] = second compound 3.16 µM, first compound 1 µM
# [29] = second compound 3.16 µM, first compound 3.16 µM
# [30] = second compound 3.16 µM, first compound 10 µM
# [31] = second compound 10 µM, first compound 0.0316 µM
# [32] = second compound 10 µM, first compound 0.1 µM
# [33] = second compound 10 µM, first compound 0.316 µM
# [34] = second compound 10 µM, first compound 1 µM
# [35] = second compound 10 µM, first compound 3.16 µM
# [36] = second compound 10 µM, first compound 10 µM
# 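Further: spheroids exposed to agents for seven days before readout.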
smiles,measurement,setting,value
CCCS(=O)(=O)Nc1ccc(F)c(C(=O)c2c[nH]c3ncc(-c4ccc(Cl)cc4)cc23)c1F + Cc1nc(NC(=O)N2CCCC2C(N)=O)sc1-c1ccnc(C(C)(C)C(F)(F)F)c1,IC50,second compound 0.0316 µM,4920 nM
same,IC50,second compound 0.1 µM,5570 nM
same,IC50,second compound 0.316 µM,5010 nM
same,IC50,second compound 1 µM,3500 nM
same,IC50,second compound 3.16 µM,2090 nM
same,IC50,second compound 10 µM,624 nM
same,"viability, T/C",[1],96.2%
same,"viability, T/C",[2],101%
same,"viability, T/C",[3],88.6%
same,"viability, T/C",[4],99.7%
same,"viability, T/C",[5],78.4%
same,"viability, T/C",[6],4.57%
same,"viability, T/C",[7],107%
same,"viability, T/C",[8],86.1%
same,"viability, T/C",[9],87.2%
same,"viability, T/C",[10],91.6%
same,"viability, T/C",[11],95.5%
same,"viability, T/C",[12],4.97%
same,"viability, T/C",[13],94.3%
same,"viability, T/C",[14],92.1%
same,"viability, T/C",[15],80.7%
same,"viability, T/C",[16],86.9%
same,"viability, T/C",[17],80.5%
same,"viability, T/C",[18],4.14%
same,"viability, T/C",[19],89.2%
same,"viability, T/C",[20],88.8%
same,"viability, T/C",[21],75.9%
same,"viability, T/C",[22],73.3%
same,"viability, T/C",[23],57.3%
same,"viability, T/C",[24],3.96%
same,"viability, T/C",[25],77.1%
same,"viability, T/C",[26],75.2%
same,"viability, T/C",[27],60.3%
same,"viability, T/C",[28],59.1%
same,"viability, T/C",[29],48.7%
same,"viability, T/C",[30],3.13%
same,"viability, T/C",[31],70.6%
same,"viability, T/C",[32],68.6%
same,"viability, T/C",[33],54.2%
same,"viability, T/C",[34],43.5%
same,"viability, T/C",[35],30.7%
same,"viability, T/C",[36],1.96%
CC(C)NCC(C(=O)N1CCN(c2ncnc3c2C(C)CC3O)CC1)c1ccc(Cl)cc1 (centres undefined) + Cc1nc(NC(=O)N2CCCC2C(N)=O)sc1-c1ccnc(C(C)(C)C(F)(F)F)c1,IC50,second compound 0.0316 µM,1380 nM
same,IC50,second compound 0.1 µM,1520 nM
same,IC50,second compound 0.316 µM,1090 nM
same,IC50,second compound 1 µM,1080 nM
same,IC50,second compound 3.16 µM,1020 nM
same,IC50,second compound 10 µM,631 nM
same,"viability, T/C",[1],96.2%
same,"viability, T/C",[2],102%
same,"viability, T/C",[3],85.4%
same,"viability, T/C",[4],56.2%
same,"viability, T/C",[5],34.5%
same,"viability, T/C",[6],27%
same,"viability, T/C",[7],97%
same,"viability, T/C",[8],87.4%
same,"viability, T/C",[9],94.3%
same,"viability, T/C",[10],60.2%
same,"viability, T/C",[11],30.7%
same,"viability, T/C",[12],17.6%
same,"viability, T/C",[13],96.8%
same,"viability, T/C",[14],93.9%
same,"viability, T/C",[15],68.5%
same,"viability, T/C",[16],51.5%
same,"viability, T/C",[17],34.2%
same,"viability, T/C",[18],18.1%
same,"viability, T/C",[19],87.9%
same,"viability, T/C",[20],96.7%
same,"viability, T/C",[21],76.8%
same,"viability, T/C",[22],50.6%
same,"viability, T/C",[23],29.6%
same,"viability, T/C",[24],16.7%
same,"viability, T/C",[25],72.3%
same,"viability, T/C",[26],84%
same,"viability, T/C",[27],73.9%
same,"viability, T/C",[28],46.6%
same,"viability, T/C",[29],29.7%
same,"viability, T/C",[30],13.4%
same,"viability, T/C",[31],62.1%
same,"viability, T/C",[32],56.8%
same,"viability, T/C",[33],63.4%
same,"viability, T/C",[34],42.4%
same,"viability, T/C",[35],21.6%
same,"viability, T/C",[36],11.9%
